Patent US20210121456A1, “USE OF METHYLNALTREXONE TO ATTENUATE TUMOR PROGRESSION” (Salix Pharmaceuticals, Inc., priority 2014, published 2021)

System: patients with advanced cancers (and non-cancer advanced illness) and opioid-induced constipation
Assay: Pooled post-hoc analysis of Study 1 and Study 2: deaths and overall survival
Type: in vivo, human
Procedure: Routine adverse event (AE) evaluations described in Example 3 were analyzed. AEs of tumor progression in specific cancers and survival analysis of the placebo and methylnaltrexone-treated cohorts in the clinical studies were tabulated. Both studies were randomized, placebo-controlled trials that involved a 2-week treatment period followed by a 2-week follow-up period. The enrolled subjects were advanced illness (incurable cancer or other end-stage disease) subjects with OIC who were receiving stable doses of laxatives and opioid analgesics. In the context of the study, a stable dose of opioid analgesics was defined as no reduction in the dose of opioid analgesic of ≥50% for at least three days before the first dose of MNTX. A stable dose of laxatives was defined as having a standing laxative order (and not PRN, or as-needed) for at least three days before the first dose of MNTX. A diagnosis of constipation was provided if the subject had (a) fewer than 3 bowel movements during the previous week by history and no clinically notable laxation in the 24 hours before the first dose of MNTX, or (b) no clinical notable laxation in the 48 hours before the first dose of MNTX. In Study 1 (Example 1), subjects received subcutaneous MNTX 0.15 mg/kg or placebo (PBO) every other day (QOD), and in Study 2 (Example 2) subjects received subcutaneous MNTX (8 mg or 12 mg based on body weight 38 to <62 kg or ≥62 kg, respectively) or placebo administered QOD. The 12 mg fixed dose was designed to correspond to the 0.15 mg/kg weight-based dose. Rescue-laxatives, enemas or manual disimpactions were not administered within 4 hours before or after each dose of MNTX. […] For statistical significance testing, the Fisher's exact test was used (p<0.05).
Subsequent to the initial pooled analysis in Example 3, the data from Study 1 and Study 2 was re-analyzed for overall survival (OS) in a post-hoc analysis. Overall survival (OS) was defined as the time interval from the treatment initiation to the date of death or the date of last follow up, whichever occurred first. […] In Study 2, 151 of the enrolled 229 patients were diagnosed with advanced cancers. […] FIG. 12 provides a schematic of the subjects with advanced cancers from the pooled studies that were analyzed in the subsequent analysis. Table 3 provides the patient characteristics from the subsequent pooled analysis of the two studies. Table 4 provides a distribution of the type of cancer diagnosed in the subjects analyzed for survival.
Table 7 lists the number of deaths and survivors in both the placebo and the methylnaltrexone-treated groups for subjects diagnosed with lung, breast, prostate, pancreatic and colon cancer. The groups are further categorized into methylnaltrexone responders and methylnaltrexone non-responders alone or in combination with the placebo group. The analysis included the results from the double-blind and open label phases of the studies. When the group of MNTX-treated subjects across both studies was examined, there was a significant difference in the percentage of subject deaths between the MNTX-responsive group and the MNTX non-responsive group, with the number of survivors in the MNTX-responsive group exceeding the number of survivors in the MNTX non-responsive group. […] For the analysis in Table 7, a subject with laxation within 0-4 hours after two of the first four doses of MNTX was considered a responder. The data in Table 6 may vary slightly from that in Table 4 based on how the subjects were coded as cancer patients during analysis of the data. […]
For the analysis carried out in this Example and in Example 3, a subject with laxation occurring from 0-4 hours after two of the first four doses of MNTX was considered a MNTX responder or responsive subject. Data for placebo patients who elected to participate in the open-label MNTX treatment phase was collected from the first 4 doses of open-label treatment. […]

[1] = Excluding crossover to MNTX (MNTX 117, placebo 61)
[2] = Patients on placebo (crossover to MNTX 51, placebo 61)
[3] = Table 6, Non-Responders (versus Responders < 4hr)
[4] = Table 6, Non-Responders (versus Responders < 8hr)
[5] = Table 6, Non-Responders (versus Responders < 12hr)
[6] = Table 6, Non-Responders (versus Responders < 24hr)
[7] = Table 7, MNTX All, Total of five cancers
[8] = Table 7, MNTX Non-Responders, Breast
[9] = Table 7, MNTX Non-Responders, Colon
[10] = Table 7, MNTX Non-Responders, Lung
[11] = Table 7, MNTX Non-Responders, Pancreas
[12] = Table 7, MNTX Non-Responders, Prostate
[13] = Table 7, MNTX Non-Responders, Total of five cancers
[14] = Table 7, MNTX Responders, Breast
[15] = Table 7, MNTX Responders, Colon
[16] = Table 7, MNTX Responders, Pancreas
[17] = Table 7, MNTX Responders, Prostate
[18] = Table 7, MNTX Responders, Total of five cancers

In the case of `C[N@+]1(CC2CC2)CC[C@]23c4c5ccc(O)c4O[C@H]2C(=O)CC[C@@]3(O)[C@H]1C5.[Br-]` [MNTX, (R)—N-(cyclopropylmethyl) noroxymorphone methobromide], the “overall survival MNTX vs. placebo” value (134 patients with advanced illness other than cancer, p=0.88) is reported as “no difference”, the “Hazard Ratio, Treatment: MNTX vs. placebo (overall survival, Cox regression)” value (All patients (MNTX 117, placebo 112)) is reported as 0.70 and the “Hazard Ratio, Response vs. no response” value [1] is reported as 0.32. The “Hazard Ratio, Treatment: MNTX vs. placebo” value [1] was 0.32, the “Deaths (number)” value (MNTX All Patients, Cancer) was 45 and the “Deaths (number)” value (MNTX All Patients, Non-Cancer) was 11. For the same compound, the “Deaths (%)” value (MNTX All Patients, Totals) was “(31.3%)”, the “Deaths (number)” value (MNTX All Patients, Totals) was 56 and the “Deaths (number)” value (MNTX Non-Responders, Cancer) was 23. The “Deaths (number)” value (MNTX Non-Responders, Non-Cancer) was 5, the “Deaths (%)” value (MNTX Non-Responders, Totals) was “(39.4%)” and the “Deaths (number)” value (MNTX Non-Responders, Totals) was 28. For the same compound, the “Deaths (number)” value (MNTX Responders, Cancer) was 22, the “Deaths (number)” value (MNTX Responders, Non-Cancer) was 6 and the “Deaths (%)” value (MNTX Responders, Totals) was “(25.9%)”. For the same compound, the “Deaths (number)” value (MNTX Responders, Totals) was 28, the “median overall survival (OS)” value (MNTX non-responsive group (45 subjects)) was 58 days and the “overall survival (OS)” value (MNTX-responsive group, analysis before the updated analysis (FIG. 9)) was 121 days. For the same compound, the “Hazard Ratio, Response vs. no response” value [2] was 0.64, the “Hazard Ratio, Treatment: MNTX vs. placebo” value [2] was 0.15 and the “% Deaths” value [3] was 50.0%. For the same compound, the Deaths [3] was 22, the Survivors [3] was 22 and the “% Deaths” value [4] was 53.8%. For the same compound, the Deaths [4] was 21, the Survivors [4] was 18 and the “% Deaths” value [5] was 50.0%. The Deaths [5] was 18, the Survivors [5] was 18 and the “% Deaths” value [6] was 48.4%. The Deaths [6] was 15, the Survivors [6] was 16 and the “% Deaths” value (Table 6, Responders < 4hr) was 31.5%. The Deaths (Table 6, Responders < 4hr) was 23, the Survivors (Table 6, Responders < 4hr) was 50 and the “% Deaths” value (Table 6, Responders < 8hr) was 30.8%. The Deaths (Table 6, Responders < 8hr) was 24, the Survivors (Table 6, Responders < 8hr) was 54 and the “% Deaths” value (Table 6, Responders < 12hr) was 33.3%. The Deaths (Table 6, Responders < 12hr) was 27, the Survivors (Table 6, Responders < 12hr) was 54 and the “% Deaths” value (Table 6, Responders < 24hr) was 34.9%. For the same compound, the Deaths (Table 6, Responders < 24hr) was 30, the Survivors (Table 6, Responders < 24hr) was 56 and the Deaths (Table 7, MNTX All, Breast) was 3. The “Deaths (%)” value (Table 7, MNTX All, Breast) was 21.4%, the Survivors (Table 7, MNTX All, Breast) was 11 and the Deaths (Table 7, MNTX All, Colon) was 1. For the same compound, the “Deaths (%)” value (Table 7, MNTX All, Colon) was 25.0%, the Survivors (Table 7, MNTX All, Colon) was 3 and the Deaths (Table 7, MNTX All, Lung) was 14. The “Deaths (%)” value (Table 7, MNTX All, Lung) was 45.2%, the Survivors (Table 7, MNTX All, Lung) was 17 and the Deaths (Table 7, MNTX All, Pancreas) was 3. For the same compound, the “Deaths (%)” value (Table 7, MNTX All, Pancreas) was 33.3%, the Survivors (Table 7, MNTX All, Pancreas) was 6 and the Deaths (Table 7, MNTX All, Prostate) was 5. For the same compound, the “Deaths (%)” value (Table 7, MNTX All, Prostate) was 41.7%, the Survivors (Table 7, MNTX All, Prostate) was 7 and the Deaths [7] was 26. The “Deaths (%)” value [7] was 37.7%, the Survivors [7] was 43 and the Deaths [8] was 2. The “Deaths (%)” value [8] was 50.0%, the Survivors [8] was 2 and the Deaths [9] was 0. The “Deaths (%)” value [9] was 0.0%, the Survivors [9] was 1 and the Deaths [10] was 8. The “Deaths (%)” value [10] was 47.1%, the Survivors [10] was 9 and the Deaths [11] was 3. For the same compound, the “Deaths (%)” value [11] was 75.0%, the Survivors [11] was 1 and the Deaths [12] was 3. For the same compound, the “Deaths (%)” value [12] was 60.0%, the Survivors [12] was 2 and the Deaths [13] was 16. For the same compound, the “Deaths (%)” value [13] was 51.6%, the Survivors [13] was 15 and the Deaths (Table 7, MNTX Responders (laxation within 0-4 hours after two of the first four doses), Lung) was 6. For the same compound, the Deaths [14] was 1, the “Deaths (%)” value [14] was 10.0% and the Survivors [14] was 9. The Deaths [15] was 1, the “Deaths (%)” value [15] was 33.3% and the Survivors [15] was 2. For the same compound, the “Deaths (%)” value (Table 7, MNTX Responders, Lung) was 42.9%, the Survivors (Table 7, MNTX Responders, Lung) was 8 and the Deaths [16] was 0. The “Deaths (%)” value [16] was 0.0%, the Survivors [16] was 5 and the Deaths [17] was 2. The “Deaths (%)” value [17] was 28.6%, the Survivors [17] was 5 and the Deaths [18] was 10. For the same compound, the “Deaths (%)” value [18] was 26.3%, the Survivors [18] was 28 and the “median overall survival (OS)” value (cancer patients treated with MNTX (n=117)) was 76 days. The “median overall survival (OS)” value (cancer patients with response to MNTX (n=72)) was 118 days, the “median OS” value (lung cancer patients (n=15) with response to MNTX) was 118 days and the “median OS” value (lung cancer, 32 patients treated with MNTX) was 118 days. For the same compound, the Deaths (pancreatic cancer, 4 patients with response to MNTX) was “no death”, the “median OS” value (pancreatic cancer, 8 patients treated with MNTX) was 76 days and the “survival extended after administration” value (pancreatic cancer, methylnaltrexone-responsive group, initial analysis (FIG. 12)) was roughly 100 days. For the same compound, the “median OS” value (placebo patients (n=23) with response to MNTX during open-label treatment) was 74 days and the median overall survival (placebo patients (n=56) who crossed over to MNTX) was 75 days.
